Consider three compounds from US20240207414A1, “DISULFIDE-BASED PRODRUG COMPOUND” (Ludwig-Maximilians-Universitat Munchen, priority 2021, published 2024).

The nature of data set [1]: Chemical reductant assay: GSH challenge (cell-free). Type of data set: physicochemical. The note with it: aq. TE buffer pH 7.4, 37° C., 6 h, GSH 0.01-10 mM. An excerpt: This assay (see FIG. 1) examined the stability of disulfide-based reduction-triggered compounds of the invention when exposed to monothiol reductants, primarily the major physiological cellular monothiol GSH, and dithiol reductants like the disulfide reductant dithiothreitol (DTT), as evaluated in a cell-free assay, to determine whether these compounds can be useful for selective release.
Assay Conditions: A black 96-well plate with black bottom was charged with solutions of fluorophore-releasing reduction-triggered probes that are compounds of the invention (P1, P2, P3, P4 and P5) or that are not compounds of the invention and reveal the performance of prior art systems (X19) (80 μL; 25 μM in aq. TE buffer (pH 7.4) and 1.25% vol DMSO). Solutions of challenge species chosen from the monothiol glutathione (GSH, 0.1-50 mM) and the dithiol reductant dithiothreitol (DTT, 0.1-50 mM) or phosphine reductant tris-(2-carboxyethyl) phosphine (TCEP); (20 μL; 1 mM in aq. TE buffer (pH 7.4) were added and the reaction mixtures were incubated at 37° C. for 6 h while measuring fluorescence intensity over time [F(t)] using a BMG Labtech FLUOstar Omega platereader (λexc=355 nm, Δem=530 nm for PQ-OH-releasing probes X19, P1 and P2; Δexc=485 nm, Δem=530 nm for MF-OH-releasing probes P3 and P4.
Data Representation: F^max is the maximum possible fluorescence increase corresponding to complete reduction-triggered cargo release, i.e. the fluorescence intensity increase from time zero to signal plateau under TCEP incubation PQ-OH-releasing probes. F(t)/F^max(t) thus gives the timecourse measurements of fluorescence intensity, as a fraction of the maximum possible fluorescence signal. F^sat is the endpoint fluorescence intensity increase for each condition, ie. F^sat=(F(6 h)). F^sat/F^max thus gives the assay endpoint fluorescence intensity increase, as a fraction of the maximum possible fluorescence signal. In the GSH timecourse measurements shown in FIG. 1, all datasets annotated with concentrations only (0.01-10 mM) refer to GSH challenges, while datasets for TCEP positive control (100 μM) and no-reductant control (blank) are shown for comparison. The dose-response plots show F^sat/F^max for the different ratios between probe and GSH or probe and DTT concentrations, with a logarithmic horizontal scale.

Data set [2] deals with T1, GR/GSH/Grx (glutaredoxin 1, Grx1) (Homo sapiens, UniProt P35754).
T1 sequence (P35754 1-106): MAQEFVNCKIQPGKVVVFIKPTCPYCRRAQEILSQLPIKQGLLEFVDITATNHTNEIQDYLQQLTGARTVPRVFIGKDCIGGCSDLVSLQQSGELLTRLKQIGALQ
As to the kind of experiment: Enzymatic activation assay: GR/GSH/Grx1. The data set is classed as biochemical. The note with it: full mixture NADPH/GR/GSH/Grx1. An excerpt:
This assay (see FIG. 2) examined the resistance of disulfide-based reduction-triggered compounds to the major cellular enzymatic systems that maintain redox homeostasis and are capable of reducing disulfides, evaluated in a cell-free assay, to see if these compounds can be useful for selective enzyme-triggered release.
Assay conditions: A black 96-well plate with black bottom was charged with solutions of fluorophore-releasing reduction-triggered probes that are compounds of the invention (P1, P2) or that are not compounds of the invention and reveal the performance of prior art systems (X19) (50 μL; 40 μM in aq. TE buffer (pH 7.4) and 4 μL DMSO). Separately, master mixes (30 μL in aq. TE buffer (pH 7.4)) containing mixtures of the proteins human recombinant thioredoxin 1 (Trx1, 0.166-16.66 μM) or thioredoxin 2 (Trx2, 3.3 μM), or human recombinant glutaredoxin 1 (“Grx1”, 3.3 μM) or glutaredoxin 2 (Grx2, 3.3 μM) and/or oxidoreductases human recombinant thioredoxin reductase 1 (TrxR1, 0.07 μM), the thioredoxin reductase Secys498Cys mutant (TrxR1-U498C, 0.07 μM), thioredoxin reductase 2 (TrxR2, 0.07 μM) or human recombinant glutathione reductase (GR, 0.07 μM), and/or GSH (3.3 μM) were prepared. Note that TrxR1 (U498C) has decreased reducing power compared to TrxR1 due to the mutation of the key vicinal selenothiol/thiol into a vicinal dithiol, but it still reduces Trx1. […]
Data Representation: (F(t)-F^NADPH(t)) is the fluorescence intensity of the test solution at time t, from which is subtracted a background fluorescence level also at time t from a solution with NADPH (which itself is fluorescent, and is present in 10-fold higher concentration than the probe) and with the same protein mixture but without the probe. F^max(t) is the maximum possible fluorescence intensity value at time t, determined by incubation with TCEP (100 μM)) similarly as for the chemical reductant assay. (F(t)−F^NADPH(t))/F^max(t) thus gives the timecourse of fluorescence signal, as a fraction of the maximum possible fluorescence signal. […]

Data set [3] has as its system HeLa, A549 and MEF cells. Briefly: Cellular reduction assay (FIG. 3). Type of data set: cell-based, human, mouse. To be noted: 100 μM, 1% vol DMSO, cells under ordinary conditions. Here is the method:
Assay Conditions: Cells were cultured under standard conditions (Gao, L. et al. Cell Chemical Biology 2021, 28, 1-14. https://doi.org/10.1016/j.chembiol.2020.11.007), left to adhere for 24 h, then compounds were added to 100 μM with 1% vol DMSO. Fluorescence timecourse measurements were acquired as in the chemoreductant assay, with all conditions in triplicates.
Data Representation: F(t)-F(0) is the fluorescence intensity signal increase as compared to time zero signal (fluorescence intensity immediately following compound addition, before probe activation can occur), in arbitrary units although with the same detection settings for all probes releasing the same cargo. This corresponds to reduction-triggered cargo release. “ctrf” indicates cells not treated with probes, as a negative control.

Regarding `O=C(Oc1ccc(Cl)cc1-c1nc2ccc(Cl)cc2c(=O)[nH]1)N1CCC[C@@H]2CSSC[C@@H]21` (racemic) [Compound P2, 4-chloro-2-(6-chloro-4-oxo-3,4-dihydroquinazolin-2-yl)phenyl-(cis)-hexahydro-[1,2]dithiino[4,5-b]pyridine-1(2H)-carboxylate], the “cargo release (fluorescence) when challenged with monothiol reductant GSH” value (“cargo release … with monothiol reductant GSH” for short) in data set [1] was “do not release cargo”. Moreover, the “cargo release / processing by GR/GSH/Grx1” value in data set [2] was “only processed by high levels of Grx1 and Grx2”. Further, the “cargo release inside cells (fluorescence signal increase over time)” value in data set [3] is on record as “do not release cargo inside cells under ordinary conditions”.

As for “4-chloro-2-(6-chloro-4-oxo-3,4-dihydroquinazolin-2-yl)phenyl methyl(2-((2-(methyl amino)ethyl)disulfaneyl)ethyl)carbamate [Compound X19, reference compound]”, the “cargo release … with monothiol reductant GSH” value in data set [1] was “already unstable to the monothiol GSH”. Further, in data set [2], the “cargo release / processing by GR/GSH/Grx1” value is on record as “enhanced reaction kinetics”. The “cargo release inside cells (fluorescence signal increase over time)” value in data set [3] was “substantially release cargo inside cells cultured under ordinary conditions”.

Turning to `O=C(Oc1ccc(Cl)cc1-c1nc2ccc(Cl)cc2c(=O)[nH]1)N1CCC[C@@H]2CSSC[C@H]21` (racemic) [Compound P1, 4-chloro-2-(6-chloro-4-oxo-3,4-dihydroquinazolin-2-yl)phenyl-(trans)-hexahydro-[1,2]dithiino[4,5-b]pyridine-1(2H)-carboxylate], the “cargo release … with monothiol reductant GSH” value in data set [1] was “do not release cargo”. In addition, in data set [2], the “cargo release / processing by GR/GSH/Grx1” value is “only processed by high levels of Grx1 and Grx2”. Also, the “cargo release inside cells (fluorescence signal increase over time)” value in data set [3] is “do not release cargo inside cells under ordinary conditions”.
